# Laboratory results from patent US6013200A, “Low toxicity corrosion inhibitor” (Baker Hughes Incorporated, priority 1997, dated 2000).
# Assays:
# [1] = Biodegradability in sea water; conditions: after 28 days
# [2] = tested on: Skeletonema costatum; experiment: Aquatic toxicity testing; format: in vivo
structure (smiles),measurement,setting,value
NCCN1CCNC1=S [1-(2-aminoethyl)-2-imidazolidinethione],biodegradability,[1],100%
same,EC50,[2],236 µg/mL
